Source: article PMC7201278, “A structural study of TatD from Staphylococcus aureus elucidates a putative DNA-binding mode of a Mg^2+-dependent nuclease” (IUCrJ, 2020)

Legend:
SaTatD (SAV0491) = molecular target: T1, SaTatD (SAV0491) (Staphylococcus aureus, UniProt W8U6D8); settings: two phosphates per monomer in active site, coordinated to two Ni2+; SeMet-derived protein; 2.4 M sodium malonate pH 7.0, 20°C
T1 construct: gene yabD

[1] = molecular target: SaTatD (SAV0491), TatD-like DNase from Staphylococcus aureus (Mu50 strain) (Staphylococcus aureus (Mu50 strain)); assay: SEC; analytical gel filtration, Superdex 200 (10/300 GL), buffer A (20 mM Tris, 150 mM NaCl pH 8.0), 0.5 ml/min, gel-filtration standards; SaTatD at 20.0 mg/ml (high concentration)

In the case of O=P(O)(O)O [phosphate], the “X-ray crystal structure (SAD, 1.85 Å)” value (SaTatD (SAV0491)) is reported as “Polar interactions were also observed between the two phosphates and the surface residues of SaTatD”.
For “SaTatD (SAV0491), TatD-like DNase from Staphylococcus aureus (Mu50 strain) (enzyme)”, the stoichiometry N [1] was 2.
